Experimental data published in patent US8673950B2, “Dihydrooxazol-2-amine derivatives” (Hoffmann-LaRoche Inc., priority 2010, dated 2014).

Tests used:
[1] = target: mouse TAAR1 (Mus musculus (Mouse), UniProt Q923Y8); assay: Radioligand binding assay on mouse TAAR1; details: mouse TAAR1, membranes of stably transfected HEK-293 cells; first value of cell mouse/rat
Experimental: (§1) Construction of TAAR Expression Plasmids and Stably Transfected Cell Lines
(§2) For the construction of expression plasmids the coding sequences of human, rat and mouse TAAR 1 were amplified from genomic DNA essentially as described by Lindemann et al.. The Expand High Fidelity PCR System (Roche Diagnostics) was used with 1.5 mM Mg^2+ and purified PCR products were cloned into pCR2.1-TOPO cloning vector (Invitrogen) following the instructions of the manufacturer. PCR products were subcloned into the pIRESneo2 vector (BD Clontech, Palo Alto, Calif.), and expression vectors were sequence verified before introduction in cell lines.
(§3) HEK293 cells (ATCC # CRL-1573) were cultured essentially as described by Lindemann et al. (2005). For the generation of stably transfected cell lines HEK293 cells were transfected with the pIRESneo2 expression plasmids containing the TAAR coding sequences (described above) with Lipofectamine 2000 (Invitrogen) according to the instructions of the manufacturer, and 24 hrs post transfection the culture medium was supplemented with 1 mg/ml G418 (Sigma, Buchs, Switzerland). After a culture period of about 10 d clones were isolated, expanded and tested for responsiveness to trace amines (all compounds purchased from Sigma) with the cAMP Biotrak Enzyme immunoassay (EIA) System (Amersham) following the non-acetylation EIA procedure provided by the manufacturer.
Radioligand Binding Assay on Mouse TAAR1
(§4) Membrane Preparation and Radioligand Binding.
(§5) HEK-293 cells stably expressing mouse TAAR1 were maintained at 37° C. and 5% CO2 in DMEM high glucose medium, containing fetal calf serum (10%, heat inactivated for 30 min at 56° C.), penicillin/streptomycin (1%), and 375 μg/ml geneticin (Gibco). Cells were released from culture flasks using trypsin/EDTA, harvested, washed twice with ice-cold PBS (without Ca^2+ and Mg^2+), pelleted at 1'000 rpm for 5 min at 4° C., frozen and stored at −80° C. Frozen pellets were suspended in 20 ml HEPES-NaOH (20 mM, pH 7.4) containing 10 mM EDTA and homogenized with a Polytron (PT 6000, Kinematica) at 14'000 rpm for 20 s. The homogenate was centrifuged at 48'000×g for 30 min at 4° C. Subsequently, the supernatant was removed and discarded, and the pellet resuspended in 20 ml HEPES-NaOH (20 mM, pH 7.4) containing 0.1 mM EDTA using the Polytron (20 s at 14'000 rpm). This procedure was repeated and the final pellet resuspended in HEPES-NaOH containing 0.1 mM EDTA and homogenized using the Polytron. Typically, aliquots of 2 ml membrane portions were stored at −80° C. With each new membrane batch the dissociation constant (Kd) was determined via a saturation curve. The TAAR1 radioligand ^3[H]-(S)-4-[(ethyl-phenyl-amino)-methyl]-4,5-dihydro-oxazol-2-ylamine (described in WO 2008/098857) was used at a concentration equal to the calculated Kd value, that was usually around 0.7 nM, resulting in the binding of approximately 0.5% of the radioligand and a specific binding representing approximately 70% of the total binding. Nonspecific binding was defined as the amount of ^3[H]-(S)-4-[(ethyl-phenyl-amino)-methyl]-4,5-dihydro-oxazol-2-ylamine bound in the presence of 10 μM unlabeled ligand. All compounds were tested at a broad range of concentrations (10 μM to 10 μM) in duplicates. […] The 96 deep well plates were incubated for 1 hr at 4° C. Incubations were terminated by rapid filtration through Unifilter-96 plates (Packard Instrument Company) and glass filters GF/C (Perkin Elmer) presoaked for 1 hr in polyethylenimine (0.3%) and washed 3 times with 1 ml of cold binding buffer. After addition of 45 μl of Microscint 40 (PerkinElmer) the Unifilter-96 plate was sealed and after 1 hr the radioactivity counted using a TopCount Microplate Scintillation Counter (Packard Instrument Company).

[2] = target: rat TAAR1 (Rattus norvegicus (Rat), UniProt Q923Y9); assay: Radioligand binding assay on rat TAAR1; details: rat TAAR1, membranes of stably transfected HEK-293 cells; second value of cell mouse/rat
Experimental: as §1, §2, §3
Radioligand Binding Assay on Rat TAAR1
as §4
as §5, with “expressing rat” for “expressing mouse”, “curve. […]” for “curve. The TAAR1 radioligand ^3[H]-(S)-4-[(ethyl-phenyl-amino)-methyl]-4,5-dihydro-oxazol-2-ylamine (described in WO 2008/098857) was used at a concentration equal to the calculated Kd value, that was usually around 0.7 nM, resulting in the binding of approximately 0.5% of the radioligand and a specific binding representing approximately 70% of the total binding.”, “(10 pM” for “(10 μM”

Sequence of rat TAAR1 (Q923Y9 whole entry): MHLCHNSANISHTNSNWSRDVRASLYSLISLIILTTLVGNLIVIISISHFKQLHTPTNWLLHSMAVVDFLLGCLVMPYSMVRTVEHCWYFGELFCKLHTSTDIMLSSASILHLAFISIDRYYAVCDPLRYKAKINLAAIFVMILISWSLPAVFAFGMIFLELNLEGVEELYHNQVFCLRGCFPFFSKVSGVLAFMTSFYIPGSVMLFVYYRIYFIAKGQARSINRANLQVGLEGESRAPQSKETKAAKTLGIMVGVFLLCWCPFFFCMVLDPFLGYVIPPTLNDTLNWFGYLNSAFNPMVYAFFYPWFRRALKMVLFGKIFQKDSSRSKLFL
Sequence of mouse TAAR1 (Q923Y8 whole entry): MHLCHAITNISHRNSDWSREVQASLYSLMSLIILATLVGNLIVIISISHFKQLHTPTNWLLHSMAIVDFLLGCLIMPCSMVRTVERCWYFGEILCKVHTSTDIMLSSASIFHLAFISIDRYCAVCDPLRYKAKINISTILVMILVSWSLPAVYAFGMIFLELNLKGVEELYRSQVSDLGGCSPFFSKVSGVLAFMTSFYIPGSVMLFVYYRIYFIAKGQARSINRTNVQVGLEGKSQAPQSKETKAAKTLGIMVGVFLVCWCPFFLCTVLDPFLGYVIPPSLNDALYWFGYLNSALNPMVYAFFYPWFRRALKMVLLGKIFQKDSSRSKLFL

Structure (SMILES)	Ki [1] [µM]	Ki [2] [µM]
NC1=N[C@@H](CCc2ccc(Nc3cccc4cccnc34)cc2)CO1 [Example 1, (S)-4-(4-(Quinolin-8-ylamino)phenethyl)-4,5-dihydrooxazol-2-amine]	0.0035	0.0006
NC1=N[C@@H](CCc2ccc(Nc3cccc4ccccc34)cc2)CO1 [Example 2, (S)-4-(4-(Naphthalen-1-ylamino)phenethyl)-4,5-dihydrooxazol-2-amine]	0.0021	0.0001
NC1=N[C@@H](CCc2ccc(Nc3ccc(F)cn3)cc2)CO1 [Example 3, (S)-4-(4-(5-Fluoropyridin-2-ylamino)phenethyl)-4,5-dihydrooxazol-2-amine]	0.0022	0.0002
Cc1cc(Nc2ccc(CC[C@H]3COC(N)=N3)cc2)c2ncccc2c1 [Example 4, (S)-4-(4-(6-Methylquinolin-8-ylamino)phenethyl)-4,5-dihydrooxazol-2-amine]	0.0021	0.0006
NC1=N[C@@H](CCc2ccc(Nc3cccc4cccc(Cl)c34)cc2)CO1 [Example 5, (S)-4-(4-(8-Chloronaphthalen-1-ylamino)phenethyl)-4,5-dihydrooxazol-2-amine]	0.0262	0.0033
NC1=N[C@@H](CCc2ccc(Nc3ccc(Cl)cc3)cc2)CO1 [Example 6, (S)-4-{2-[4-(4-Chloro-phenylamino)-phenyl]-ethyl}-4,5-dihydro-oxazol-2-ylamine]	0.0002	0.0001
NC1=N[C@@H](CCc2ccc(Nc3ccc(Cl)cc3F)cc2)CO1 [Example 7, (S)-4-{2-[4-(4-Chloro-2-fluoro-phenylamino)-phenyl]-ethyl}-4,5-dihydro-oxazol-2-ylamine]	0.0017	0.0001
NC1=N[C@@H](CCc2ccc(Nc3ccc(C(F)(F)F)cc3)cc2)CO1 [Example 8, (S)-4-{2-[4-(4-Trifluoromethyl-phenylamino)-phenyl]-ethyl}-4,5-dihydro-oxazol-2-ylamine]	0.0002	0.0002
COc1ccc(Nc2ccc(CC[C@H]3COC(N)=N3)cc2)cc1 [Example 9, (S)-4-{2-[4-(4-Methoxy-phenylamino)-phenyl]-ethyl}-4,5-dihydro-oxazol-2-ylamine]	0.0032	0.0002
Cc1cc(Nc2ccc(CC[C@H]3COC(N)=N3)cc2)ccc1OC(F)(F)F [Example 10, (S)-4-(4-(3-Methyl-4-(trifluoromethoxy)phenylamino)phenethyl)-4,5-dihydrooxazol-2-amine]	0.0001	0.0001
NC1=N[C@@H](CCc2ccc(Nc3ccc(C(F)(F)F)cn3)cc2)CO1 [Example 11, {4-[2-((S)-2-Amino-4,5-dihydro-oxazol-4-yl)-ethyl]-phenyl}-(5-trifluoromethyl-pyridin-2-yl)-amine]	0.0002	0.0004
N#Cc1ccc(N(c2ccc(CC[C@H]3COC(N)=N3)cc2)c2ccc(C#N)cn2)nc1 [Example 12, (S)-6,6′-(4-(2-(2-Amino-4,5-dihydrooxazol-4-yl)ethyl)phenylazanediyl)dinicotinonitrile]	0.111	–
NC1=N[C@@H](CCc2ccc(Nc3ccccc3)cc2)CO1 [Example 13, (S)-4-[2-(4-Phenylamino-phenyl)-ethyl]-4,5-dihydro-oxazol-2-ylamine]	0.0013	0.0001
Cc1ccc(Nc2ccc(CC[C@H]3COC(N)=N3)cc2)cc1 [Example 14, (S)-4-(4-(p-Tolylamino)phenethyl)-4,5-dihydrooxazol-2-amine]	0.0008	0.0001
NC1=N[C@@H](CCc2ccc(Nc3ccc(Cl)cn3)cc2)CO1 [Example 15, {4-[2-((S)-2-Amino-4,5-dihydro-oxazol-4-yl)-ethyl]-phenyl}-(5-chloro-pyridin-2-yl)-amine]	0.0005	0.0001
N#Cc1ccc(Nc2ccc(CC[C@H]3COC(N)=N3)cc2)nc1 [Example 16, 6-{4-[2-((S)-2-Amino-4,5-dihydro-oxazol-4-yl)-ethyl]-phenylamino}-nicotinonitrile]	0.0015	0.0004
NC1=N[C@@H](CCc2ccc(Nc3cc(C(F)(F)F)ncn3)cc2)CO1 [Example 17, (S)-4-(4-(6-(Trifluoromethyl)pyrimidin-4-ylamino)phenethyl)-4,5-dihydrooxazol-2-amine]	0.0013	0.0012
NC1=N[C@@H](CCc2ccc(Nc3ncc(Cl)cn3)cc2)CO1 [Example 18, {4-[2-((S)-2-Amino-4,5-dihydro-oxazol-4-yl)-ethyl]-phenyl}-(5-chloro-pyrimidin-2-yl)-amine]	0.0012	0.0002
NC1=N[C@@H](CCc2ccc(Nc3ccc(Cl)c(Cl)c3)cc2)CO1 [Example 19, (S)-4-(4-(3,4-Dichlorophenylamino)phenethyl)-4,5-dihydrooxazol-2-amine]	0.0002	0.0001
NC1=N[C@@H](CCc2ccc(Nc3ncc(F)cn3)cc2)CO1 [Example 20, {4-[2-((S)-2-Amino-4,5-dihydro-oxazol-4-yl)-ethyl]-phenyl}-(5-fluoro-pyrimidin-2-yl)-amine]	0.0224	0.004
NC1=N[C@@H](CCc2ccc(Nc3ncccc3F)cc2)CO1 [Example 21, {4-[2-((S)-2-Amino-4,5-dihydro-oxazol-4-yl)-ethyl]-phenyl}-(3-fluoro-pyridin-2-yl)-amine]	0.02	0.0005
NC1=N[C@@H](CCc2ccc(Nc3cc(F)ccn3)cc2)CO1 [Example 22, {4-[2-((S)-2-Amino-4,5-dihydro-oxazol-4-yl)-ethyl]-phenyl}-(4-fluoro-pyridin-2-yl)-amine]	0.0034	0.0002
NC1=N[C@@H](CCc2ccc(Nc3cc(C(F)(F)F)ccn3)cc2)CO1 [Example 23, {4-[2-((S)-2-Amino-4,5-dihydro-oxazol-4-yl)-ethyl]-phenyl}-(4-trifluoromethyl-pyridin-2-yl)-amine]	0.0003	0.0002
Cc1cc(Nc2ccc(CC[C@H]3COC(N)=N3)cc2)ncn1 [Example 24, {4-[2-((S)-2-Amino-4,5-dihydro-oxazol-4-yl)-ethyl]-phenyl}-(6-methyl-pyrimidin-4-yl)-amine]	0.0182	0.0013
